System: phospho-p90RSK in A375 cell line
Assay: A375 Phospho-p90RSK Cellular Assay
Assay type: cell-based, human
Details: Homo sapiens, A-375, 2 h, A375 cells, 2 hours incubation
In short: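 A375 cells (2400/well, DMEM/10% FCS) seeded overnight, then dosed over a 12-point range from 30 μM down to 0.00003 μM (0.3% DMSO) for 2 h at 37 °C. Fixed cells were immunostained for phospho-p90RSK Thr359 with Hoechst nuclear counterstain and read by high-content imaging; IC50s fitted from dose-response.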

## COC[C@H]1Cn2cc(-c3nc(Nc4ccnn4C)ncc3C)nc2C(=O)N1Cc1ccc(F)c(F)c1 [Example 18, (R)-7-(3,4-Difluorobenzyl)-6-(methoxymethyl)-2-(5-methyl-2-((1-methyl-1H-pyrazol-5-yl)amino)pyrimidin-4-yl)-6,7-dihydroimidazo[1,2-a]pyrazin-8(5H)-one]
  IC50: 5.7 nM

Reference: patent US10202391B2, “Chemical compounds” (AstraZeneca AB, priority 2015, dated 2019)
